US5395947A, “Platinum(II) complex and processes for preparing the same” (Sunkyong Industries, Ltd., priority 1991, dated 1995)

What was measured:
[1] = system: murine leukemia L1210 cells; assay: Growth inhibition test on cultured murine leukemia L1210 cells; format: cell-based; settings: 48 hours, 37° C., Trypan blue viability
Experimental: 1. Growth inhibition test on cultured murine leukemia L1210 cells
Murine leukemia L1210 cells(1×10^5) were treated with various concentrations of the compounds prepared in the above examples in RPMI 1640 medium supplemented with 10% fetal calf serum, and cultured in a 5% CO2 humidified incubator at 37° C. for 48 hours. Their viability, estimated by staining with 0.17% Trypan blue, was compared with that of control cells cultured in the identical medium without the compounds.

[2] = system: murine leukemia L1210; assay: Antitumor activity test on murine leukemia L1210 in vivo; parameters: species or system male BDF1 mice; settings: days 1, 5, 9
Experimental: 2. Antitumor activity test on murine leukemia L1210 in vivo
Murine leukemia L1210 cells were maintained in the peritoneal cavities of 6-week-old male DBA/2 mice by weekly transfer in accordance with the procedure described in cancer chemotherapy Reports, Part 3, 3(2), 7 (1972). Specifically, 1×10^6 leukemia cells were inoculated into the abdominal cavities of 6-week-old male BDF1 mice weighing 21±3 g on day 0. Each treatment group consisted of seven mice. The test compounds were dissolved or suspended in 0.5% carboxymethyl cellulose(CMC)solution (in water) and were administered intraperitoneally on days 1, 5, and 9 relative to the tumor inoculation.
Thirty mice of 6-week-old male BDF1 weighing 21±3 g were used as the control group, which were injected with 0.5% CMC solution only in the same manner as above.
Anti-tumor activities of the compounds were evaluated in terms of the T/C % values calculated from the mean survival time(T) of the compound-treated group over that(C) of the control group. [formula]

## CC1(C)OC2C[NH2+][Pt-2]3([NH2+]CC2O1)[O]C(=O)CC(=O)[O]3 [Example 36, cis-malonato[(4R,5R)-4,5-bis(aminomethyl)-2,2-dimethyl-1,3-dioxolane]platinum(II)]
[1]
  IC50 (concentration required for 50% inhibition of growth): 0.76 µg/mL
[2]; 12.5 mg/kg i.p.
  T/C (%): 133%
[2]; 25 mg/kg i.p.
  T/C (%): 179%
[2]; 50 mg/kg i.p.
  T/C (%): 190%

## CC1OC(CN)C(CN)O1.CC1[O][Pt][O]C1=O [Example 17, (L-lactato-O,O')[(4R,5R)-4,5-bis(aminomethyl)-2-methyl-1,3-dioxolane]platinum(II)]
[1]
  IC50 (concentration required for 50% inhibition of growth): 0.44 µg/mL
[2]; 12.5 mg/kg i.p.
  T/C (%): 201%
[2]; 25 mg/kg i.p.
  T/C (%): 327%
[2]; 50 mg/kg i.p.
  T/C (%): 139%

## CC1[O][Pt][O]C1=O.NCC1OCOC1CN [Example 13, (L-lactato-O,O')[(4R,5R)-4,5-bis(aminomethyl)-1,3-dioxolane]platinum(II)]
[1]
  IC50 (concentration required for 50% inhibition of growth): 0.55 µg/mL
[2]; 12.5 mg/kg i.p.
  T/C (%): 178%
[2]; 25 mg/kg i.p.
  T/C (%): 207%
[2]; 50 mg/kg i.p.
  T/C (%): 92%

## CC1(C)C(=O)[O][Pt-2]2([NH2+]CC3OC4(CCCC4)OC3C[NH2+]2)[O]C1=O [Example 42, cis-dimethylmalonato[(4R,5R)-4,5-bis(aminomethyl)-1,3-dioxolane-2-spiro-1'-cyclopentane]platinum(II)]
[1]
  IC50 (concentration required for 50% inhibition of growth): 0.54 µg/mL
[2]; 25 mg/kg i.p.
  T/C (%): 172%
[2]; 50 mg/kg i.p.
  T/C (%): 160%
[2]; 100 mg/kg i.p.
  T/C (%): 150%

## CC1(C)OC(CN)C(CN)O1.CC1[O][Pt][O]C1=O [Example 14, (L-lactato-O,O')[(4R,5R)-4,5-bis(aminomethyl)-2,2-dimethyl-1,3-dioxolane]platinum(II)]
[1]
  IC50 (concentration required for 50% inhibition of growth): 0.46 µg/mL
[2]; 12.5 mg/kg i.p.
  T/C (%): 213%
[2]; 25 mg/kg i.p.
  T/C (%): toxic
[2]; 50 mg/kg i.p.
  T/C (%): toxic

## NC[C@H]1OCO[C@@H]1CN.O=C1C[O][Pt][O]1 [Example 1, (glycolato-O,O')[(4R,5R)-4,5-bis(aminomethyl)-1,3-dioxolane]platinum(II)]
[1]
  IC50 (concentration required for 50% inhibition of growth): 0.36 µg/mL
[2]; 3.1 mg/kg i.p.
  T/C (%): 95%
[2]; 6.2 mg/kg i.p.
  T/C (%): 132%
[2]; 12.5 mg/kg i.p.
  T/C (%): 137%
[2]; 25 mg/kg i.p.
  T/C (%): 160%
[2]; 50 mg/kg i.p.
  T/C (%): toxic

## CC1OC2C[NH2+][Pt-2]3([NH2+]CC2O1)[O]C(=O)CC(=O)[O]3 [Example 34, cis-malonato[(4R,5R)-4,5-bis(aminomethyl)-2-methyl-1,3-dioxolane]platinum(II)]
[1]
  IC50 (concentration required for 50% inhibition of growth): 0.60 µg/mL
[2]; 12.5 mg/kg i.p.
  T/C (%): 140%
[2]; 25 mg/kg i.p.
  T/C (%): 156%
[2]; 50 mg/kg i.p.
  T/C (%): 241%

## CC(C)C1O[C@H](C[NH-])[C@@H](C[NH-])O1.O=C([O-])CC(=O)[O-].[Pt+4] (relative stereo) [Example 38, cis-malonato[(4R,5R)-4,5-bis(aminomethyl)-2-isopropyl-1,3-dioxolane]platinum(II)]
[1]
  IC50 (concentration required for 50% inhibition of growth): 0.43 µg/mL
[2]; 12.5 mg/kg i.p.
  T/C (%): 123%
[2]; 25 mg/kg i.p.
  T/C (%): 148%
[2]; 50 mg/kg i.p.
  T/C (%): 220%

## CCC1OC2C[NH2+][Pt-2]3([NH2+]CC2O1)[O]C(=O)CC(=O)[O]3 [Example 35, cis-malonato[(4R,5R)-4,5-bis(aminomethyl)-2-ethyl-1,3-dioxolane]platinum(II)]
[1]
  IC50 (concentration required for 50% inhibition of growth): 0.44 µg/mL
[2]; 12.5 mg/kg i.p.
  T/C (%): 144%
[2]; 25 mg/kg i.p.
  T/C (%): 204%
[2]; 50 mg/kg i.p.
  T/C (%): 245%

## CC1O[C@H](CN)[C@@H](CN)O1.O=C1C[O][Pt][O]1 [Example 5, (glycolato-O,O')[(4R,5R)-4,5-bis(aminomethyl)-2-methyl-1,3-dioxolane]platinum(II)]
[1]
  IC50 (concentration required for 50% inhibition of growth): 0.35 µg/mL
[2]; 3.1 mg/kg i.p.
  T/C (%): 104%
[2]; 6.2 mg/kg i.p.
  T/C (%): 136%
[2]; 12.5 mg/kg i.p.
  T/C (%): 154%
[2]; 50 mg/kg i.p.
  T/C (%): toxic

## CCC1OC2C[NH2+][Pt-2]3([NH2+]CC2O1)[O]C(=O)C(C)(C)C(=O)[O]3 [Example 40, cis-dimethylmalonato[(4R,5R)-4,5-bis(aminomethyl)-2-ethyl-1,3-dioxolane]platinum(II)]
[1]
  IC50 (concentration required for 50% inhibition of growth): 0.52 µg/mL
[2]; 25 mg/kg i.p.
  T/C (%): 213%
[2]; 50 mg/kg i.p.
  T/C (%): 165%
[2]; 100 mg/kg i.p.
  T/C (%): 248%

## CC(C)C1OC2C[NH2+][Pt-2]3([NH2+]CC2O1)[O]C(=O)C(C)(C)C(=O)[O]3 [Example 41, cis-dimethylmalonato[(4R,5R)-4,5-bis(aminomethyl)-2-isopropyl-1,3-dioxolane]platinum(II)]
[1]
  IC50 (concentration required for 50% inhibition of growth): 0.44 µg/mL
[2]; 25 mg/kg i.p.
  T/C (%): 123%
[2]; 50 mg/kg i.p.
  T/C (%): 174%
[2]; 100 mg/kg i.p.
  T/C (%): 204%

## O=C1CC(=O)[O][Pt-2]2([NH2+]CC3OC4(CCCC4)OC3C[NH2+]2)[O]1 [Example 39, cis-malonato[(4R,5R)-4,5-bis(aminomethyl)-1,3-dioxolane-2-spiro-1'-cyclopentane]platinum(II)]
[1]
  IC50 (concentration required for 50% inhibition of growth): 0.31 µg/mL
[2]; 12.5 mg/kg i.p.
  T/C (%): 217%
[2]; 25 mg/kg i.p.
  T/C (%): 169%
[2]; 50 mg/kg i.p.
  T/C (%): 203%

## O=C1CC(=O)[O][Pt-2]2([NH2+]CC3OCOC3C[NH2+]2)[O]1 [Example 33, cis-malonato[(4R,5R)-4,5-bis(aminomethyl)-1,3-dioxolane]platinum(II)]
[1]
  IC50 (concentration required for 50% inhibition of growth): 0.50 µg/mL
[2]; 12.5 mg/kg i.p.
  T/C (%): 146%
[2]; 25 mg/kg i.p.
  T/C (%): 133%
[2]; 50 mg/kg i.p.
  T/C (%): 276%
